Measured values published in US5990295A (priority 1998, dated 1999).

Test system: ω-conotoxin GVIA binding site on brain membrane preparations
Parameters: species or system frogs, chicks and rats

## ω-conotoxin GVIA
  displacement of 125I-GVIA: approximately 90%
  displacement of 125I-GVIA label: approximately 98%
